From ChEMBL document CHEMBL4418497, “Compositions and methods relating to inhibiting serine hyrdoxymethyltransferase 2 activity” (2016)

Molecular target: T1, Serine hydroxymethyltransferase, mitochondrial (Homo sapiens, UniProt P34897)
T1 sequence (P34897 whole entry): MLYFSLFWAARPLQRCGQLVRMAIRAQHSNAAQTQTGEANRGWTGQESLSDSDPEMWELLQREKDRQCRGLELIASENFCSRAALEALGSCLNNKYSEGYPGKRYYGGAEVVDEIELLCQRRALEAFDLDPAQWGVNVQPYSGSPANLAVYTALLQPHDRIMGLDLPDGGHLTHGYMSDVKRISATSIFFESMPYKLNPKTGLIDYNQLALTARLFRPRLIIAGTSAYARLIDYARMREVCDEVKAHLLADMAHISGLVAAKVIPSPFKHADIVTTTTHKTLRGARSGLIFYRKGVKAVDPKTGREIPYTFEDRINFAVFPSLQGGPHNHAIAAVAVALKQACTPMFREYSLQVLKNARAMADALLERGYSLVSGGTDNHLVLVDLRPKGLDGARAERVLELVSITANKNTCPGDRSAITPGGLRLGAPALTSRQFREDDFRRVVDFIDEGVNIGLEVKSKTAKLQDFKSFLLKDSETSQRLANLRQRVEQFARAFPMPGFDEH
Experiment: Inhibition of His-tagged human recombinant SHMT2 expressed in Escherichia coli BLR(DE3) assessed as reduction in NADPH level using L-serine, THF and NADP+ incubated for 5 mins by SHMT2-MTHFD coupled reaction based fluorescence assay

| Compound | IC50 (read-out: IC50) [µM] | IC50 (read-out: pIC50 (converted)) [µM] |
| --- | --- | --- |
| Cc1c(C(=O)NCc2ccco2)oc2c1-c1[nH]ncc1CC2 | 6.92 |  |
| CC(C)Cn1cc(NC(=O)N2CCC(C(N)=O)(N3CCCCC3)CC2)c2ccccc2c1=O | 2.51 |  |
| CC(C)Cn1cc(NC(=O)Nc2cccnc2)c2ccccc2c1=O | 2.24 |  |
| O=C1CCCC2=C1C(c1cccs1)N(S(=O)(=O)c1ccc(F)cc1)c1ccccc1N2 (configuration not stated) | 4.57 |  |
| COc1cc(C2CC(=O)N3CN(C4CCCCC4)CSC3=C2C#N)ccc1O (configuration not stated) | 4.37 |  |
| COc1cccc(NS(=O)(=O)c2ccc3c4c2CC(=O)N4CC(C)S3)c1 (configuration not stated) | 3.63 |  |
| CCC1c2ccc(C)n2CCN1C(=O)Nc1cc(OC)ccc1OC (configuration not stated) | 6.31 |  |
| COc1cc(OC)c(NC(=O)N2CCn3cccc3C2C)cc1Cl (configuration not stated) | 12.9 |  |
| COc1ccc(Nc2nnc(-n3nc(C)cc3C)c3ccccc23)cc1OC | 8.32 |  |
| Cn1c(=O)oc2cc(S(=O)(=O)N3CCC4(CC3)Nc3cc(F)ccc3-n3cccc34)ccc21 | 8.51 |  |
| CCCCC(=O)Nc1cc(F)c2nc(N3CCOCC3)ccc2c1 | 1.58 |  |
| Cc1nn(C)c(C)c1CNC(=O)Nc1ccc2c(c1)OCCO2 | 4.07 |  |
| Cc1ccc2c(c1)c1c(n2CC(O)CNCCO)C(=O)CCC1 (configuration not stated) | 5.01 |  |
| O=C(Nc1cccc2c1CCCC2)N1CCSc2ncccc21 | 2.34 |  |
| COc1ccc(NC(=O)N2CCn3c(C)ccc3C2C(C)C)cc1OC (configuration not stated) | 2.69 |  |
| CC(C)Cn1cc(NC(=O)Nc2ccc(Cl)cn2)c2ccccc2c1=O | 3.8 |  |
| COc1ccc(Cl)cc1N(C)C(=O)Nc1cn(C)c(=O)c2ccccc12 | 6.92 |  |
| COc1ccc(Nc2ncnc3sc(C(=O)O)cc23)c(OC)c1 | 1.35 |  |
| COc1ccc(NC(=O)N2CCSc3ccccc32)cc1OC | 7.08 |  |
| CCC(CC)n1nc(O)c2c(C)cc(=O)[nH]c21 | 7.41 |  |
| CN(C)c1ccc(NC(=O)C2CC=CCC2C(=O)O)cc1 (configuration not stated) | 4.79 |  |
| COc1ccc(OC)c(CNC(=O)Nc2cn(C)c(=O)c3ccccc23)c1 | 2.57 |  |
| CCOc1ccc2nc(NC(=O)CSc3nc4ncccc4o3)sc2c1 | 4.37 |  |

| Compound | IC50 (read-out: IC50) [µM] | IC50 (read-out: pIC50 (converted)) [µM] |
| --- | --- | --- |
| Cn1cc(NC(=O)NCc2cccnc2)c2ccccc2c1=O | 5.75 |  |
| CCOC(=O)C1CCCN(C(=O)Nc2cn(C)c(=O)c3ccccc23)C1 (configuration not stated) | 6.46 |  |
| CC1=NC2c3c(oc(C(=O)NCC4CCCO4)c3C)CCC2S1 (configuration not stated) | 4.07 |  |
| C=CCNc1nc(Nc2ccc(OC)cc2)c2cnn(C)c2n1 | 1.62 |  |
| O=C1c2ccccc2C(Nc2ccc3[nH]c(-c4cccnc4)nc3c2)N1Cc1ccco1 (configuration not stated) | 9.77 |  |
| CC(C)Cn1cc(NC(=O)NC2CC2)c2ccccc2c1=O | 8.71 |  |
| O=C(CSc1nc2ncccc2o1)Nc1ccc(S(=O)(=O)N2CCOCC2)cc1 | 2.63 |  |
| CC(C)Cn1cc(NC(=O)N2CCCc3ccccc32)c2ccccc2c1=O | 3.02 |  |
| CC(C)Cn1cc(NC(=O)NCCN2CCCCC2)c2ccccc2c1=O | 1.74 |  |
| CCOc1cc(-c2nnc3[nH]c(=O)n(C)c(=O)c3n2)ccc1OC(C)C | 0.69 |  |
| CC(C)Cn1cc(NC(=O)N(Cc2ccco2)CC2CCCO2)c2ccccc2c1=O (configuration not stated) | 3.89 |  |
| CC(C)Cn1cc(NC(=O)Nc2cccc(F)c2)c2ccccc2c1=O | 2.24 |  |
| O=C1CN(C(=O)COc2cccc3ccccc23)c2ccccc2N1 | 2.34 |  |
| O=C(Nc1cc(F)c2nc(N3CCOCC3)ccc2c1)C1CC1 | 1.17 |  |
| Nc1ncccc1NC(=O)CCC(=O)O | 4.47 |  |
| COc1ccc(NC(=O)n2ncc3cc(Cl)ccc32)cc1OC | 9.77 |  |
| CC(C)Cn1cc(NC(=O)NC(C)c2ccccc2)c2ccccc2c1=O (configuration not stated) | 2.75 |  |
| O=C(Cc1cccs1)Nc1cc(F)c2nc(N3CCOCC3)ccc2c1 | 4.79 |  |
| CCOC(=O)C1CCN(c2cc(C(=O)O)c3cc(N)ccc3n2)CC1 | 6.46 |  |
| Cc1cc(CNC(=O)Nc2ccc3c(c2)OCCO3)c(C)n1-c1ccc(Cl)cc1 | 8.51 |  |
| COc1ccc2c(c1)C=C(C(=O)Nc1ccc(OC)cc1OC)CO2 | 8.71 |  |
| CC(C)Cn1cc(NC(=O)Nc2cc(F)ccc2F)c2ccccc2c1=O | 4.27 |  |
| CN1CCc2nc3sc(C(=O)c4ccc(Cl)cc4)c(N)c3cc2C1 | 3.89 |  |

| Compound | IC50 (read-out: IC50) [µM] | IC50 (read-out: pIC50 (converted)) [µM] |
| --- | --- | --- |
| Cc1cc2nc(CSc3nc4ccc(NC(=O)CCC5CCCC5)cc4s3)cc(=O)n2o1 | 9.55 |  |
| CCC1=NN(c2ccccc2)C(=O)C1 | 8.51 |  |
| O=C(Nc1ccc(Br)cc1F)N1CCSc2ncccc21 | 7.59 |  |
| Fc1ccc(NCc2ccc3nccnc3c2)c(F)c1 | 2.75 |  |
| COc1ccc(NC(=O)N2CCN3CCCCC3C2)cc1OC (configuration not stated) | 3.39 |  |
| CC(C)Cn1cc(NC(=O)NCCN2CCC(C)CC2)c2ccccc2c1=O | 3.8 |  |
| CC1CC(C)CN(CCCNC(=O)Nc2cn(C)c(=O)c3ccccc23)C1 (configuration not stated) | 10.7 |  |
| Cc1c(C(=O)NCc2cccs2)oc2c1-c1[nH]ncc1CC2 | 7.94 |  |
| Cn1cc(NC(=O)NCC2COc3ccccc3O2)c2ccccc2c1=O (configuration not stated) | 4.68 |  |
| CCOC(=O)C1CCCN(c2cc(C(=O)O)c3cc(N)ccc3n2)C1 (configuration not stated) | 5.5 |  |
| CC(C)NC(=O)N1CCC2(CC1)Nc1cc(F)ccc1-n1cccc12 | 9.77 |  |
| O=c1c(Nc2cccc3c2CCCC3)c(-c2ccc(Cl)cc2)c1=O | 5.25 |  |
| CCOc1ccc(Nc2ncnc3sc(C(=O)O)c(C)c23)cc1 | 9.33 |  |
| COc1ccc(Nc2nc(Nc3ccccc3)c3cnn(C)c3n2)c(OC)c1 | 3.31 |  |
| CCN(CC)S(=O)(=O)c1ccc(NC(=O)Nc2cn(CC(C)C)c(=O)c3ccccc23)cc1 | 3.72 |  |
| COc1c(C)cnc(CSc2nc3ncccc3o2)c1C | 4.07 |  |
| CCOC(=O)c1c(S(=O)(=O)Nc2ccc(OC)c(OC)c2)c(C)n(C)c1C | 8.13 |  |
| Cc1c(C(=O)N2CCOCC2)oc2c1-c1nn(CC(=O)NC3CCCC(C)C3C)cc1CC2 (configuration not stated) | 2.69 |  |
| CC(C)Cn1cc(NC(=O)NCCN2CCN(C)CC2)c2ccccc2c1=O | 2.45 |  |
| COc1ccc(OC)c(NS(=O)(=O)c2ccc3c(c2)S(=O)(=O)NC=N3)c1 | 4.07 |  |
| COc1cc(OC)c(NC(=O)N2CCN3CCCCC3C2)cc1Cl (configuration not stated) | 2.69 |  |
| CC(=O)Nc1ncc2c(n1)CC(c1ccco1)CC2=O (configuration not stated) | 4.57 |  |
| Cc1ccc2oc(SCC(=O)Nc3ccc(S(=O)(=O)N4CCCC4)cc3)nc2n1 | 11.8 |  |

| Compound | IC50 (read-out: IC50) [µM] | IC50 (read-out: pIC50 (converted)) [µM] |
| --- | --- | --- |
| COc1ccc(OC)c(NC(=O)CSc2nc3ncccc3o2)c1 | 2.14 |  |
| COc1ccc(-c2nc3c4nsnc4ccc3n2C)cc1Br | 0.54 |  |
| COc1ccc(OC)c(Nc2c(-c3cc(C)c(C)cc3C)c(=O)c2=O)c1 | 10 |  |
| CCC(CC)C(=O)Nc1cc(F)c2nc(N3CCOCC3)ccc2c1 | 5.13 |  |
| C=CCn1c(=O)sc2cc(NC(=O)Cc3ccc(F)cc3)ccc21 | 10.2 |  |
| CC(C)Cn1cc(NC(=O)Nc2ccc(F)cc2Cl)c2ccccc2c1=O | 1.86 |  |
| COc1ccc(Cl)cc1NC(=O)N1CC2CCCN2c2ccccc21 (configuration not stated) | 2 |  |
| CCC(C)NC(=O)Nc1cn(CC(C)C)c(=O)c2ccccc12 (configuration not stated) | 2.34 |  |
| COc1ccc(NC2c3ncccc3C(=O)N2Cc2ccco2)cc1OC (configuration not stated) | 12.6 |  |
| COc1ccc(Nc2nnc(Cc3ccncc3)c3ccccc23)c(OC)c1 | 3.89 |  |
| COc1cccc(C2CC(=O)N3CN(c4ccc(OC)cc4OC)CSC3=C2C#N)c1 (configuration not stated) | 4.37 |  |
| CNc1nc(Nc2ccc(OC)cc2)c2cnn(C)c2n1 | 13.8 |  |
| COC(=O)Cn1cc2c(n1)-c1c(oc(C(=O)N3CCCC3)c1C)CC2 | 6.03 |  |
| CC(C)Cn1cc(NC(=O)NCC2CCN(CCc3cccs3)CC2)c2ccccc2c1=O | 3.24 |  |
| CCOC(=O)Cc1csc(NC(=O)Nc2cn(CC(C)C)c(=O)c3ccccc23)n1 | 3.31 |  |
| CCCN1CCN(CCCNC(=O)c2oc3c(c2C)-c2[nH]ncc2CC3)CC1 | 5.13 |  |
| O=C(CSc1nc2ncccc2o1)Nc1ccc(S(=O)(=O)NC2CCCCC2)cc1 | 3.02 |  |
| CC(C)Cn1cc(NC(=O)N2CCN(c3cccc(Cl)c3)CC2)c2ccccc2c1=O | 5.89 |  |
| Cc1cc(C)n(-c2nnc(Nc3ccc4c(c3)OCCO4)c3ccccc23)n1 | 2.19 |  |
| Cc1csc(NC(=O)Nc2cn(CC(C)C)c(=O)c3ccccc23)n1 | 3.47 |  |
| O=C(O)CCc1nc(-c2ccccc2)c(-c2ccccc2)o1 [OXAPROZIN] |  | 1.95 |
| O=C(Nc1cc(F)c2nc(N3CCOCC3)ccc2c1)C1CCC1 | 1.55 |  |
| Cn1cc(NC(=O)NCC2CCCO2)c2ccccc2c1=O (configuration not stated) | 4.47 |  |
